Results from ChEMBL document CHEMBL3885861, “Open TG-GATES”.

Organism: Rattus norvegicus
Experiment: Open TG-GATES - Regimen: Daily Repeat
Format: toxicity, organism-based, Sprague-Dawley
Parameters: regimen Daily Repeat, gender Male, age 6 weeks
Conditions: in vivo, po, 200 mg/kg, route gavage, dose level High; for APTT / Bas / Eos / Fbg / Hb / Ht / Lym / MCH / MCHC / MCV / Mono / Neu / PT / Plat / RBC / Ret / WBC: tissue Blood; for KIDNEY_L / KIDNEY_R / KIDNEY_TOTAL: tissue Kidney; for LIVER: tissue Liver; for A/G / ALP / ALT / AST / BUN / CRE / Ca / Cl / DBIL / GLC / IP / K / LDH / Na / PL / RALB / TBIL / TC / TG / TP / gamma-GTP: tissue Plasma

CCc1oc2ccccc2c1C(=O)c1cc(Br)c(O)c(Br)c1 [BENZBROMARONE] was tested, and the TERMINAL_BW (72 h, time 3 day) was 217 g, the APTT (72 h, time 3 day) was 22.6 s and the Bas (72 h, time 3 day) was 0%. For the same compound, the Eos (72 h, time 3 day) was 1.2%, the Fbg (72 h, time 3 day) was 211 mg/dL and the Hb (72 h, time 3 day) was 14 g/dL. It also gave a Ht (72 h, time 3 day) of 41.9%, a Lym (72 h, time 3 day) of 80% and an MCH (72 h, time 3 day) of 21.9 pg. For the same compound, the MCHC (72 h, time 3 day) was 33.5%, the MCV (72 h, time 3 day) was 65.5 fL and the Mono (72 h, time 3 day) was 5%. It also gave a Neu (72 h, time 3 day) of 14.2%, a PT (72 h, time 3 day) of 14.6 s and a Plat (72 h, time 3 day) of 104.6 x10_4/uL. For the same compound, the RBC (72 h, time 3 day) was 640.8 x10_4/ul, the Ret (72 h, time 3 day) was 5.7% and the WBC (72 h, time 3 day) was 124.5 x10_2/uL. It also gave a KIDNEY_L (72 h, time 3 day) of 1 g, a KIDNEY_R (72 h, time 3 day) of 1 g and a KIDNEY_TOTAL (72 h, time 3 day) of 2 g. The LIVER (72 h, time 3 day) was 15.3 g, the A/G (72 h, time 3 day) was 2.6 and the ALP (72 h, time 3 day) was 1041.8 IU/L. For the same compound, the ALT (72 h, time 3 day) was 45.5 IU/L, the AST (72 h, time 3 day) was 69.2 IU/L and the BUN (72 h, time 3 day) was 17 mg/dL. The CRE (72 h, time 3 day) was 0.7 mg/dL, the Ca (72 h, time 3 day) was 10 mg/dL and the Cl (72 h, time 3 day) was 107.9 meq/L. For the same compound, the DBIL (72 h, time 3 day) was 0.025 mg/dL, the GLC (72 h, time 3 day) was 167.2 mg/dL and the IP (72 h, time 3 day) was 6.7 mg/dL. For the same compound, the K (72 h, time 3 day) was 4.4 meq/L, the LDH (72 h, time 3 day) was 195 IU/L and the Na (72 h, time 3 day) was 141.3 meq/L. The PL (72 h, time 3 day) was 129.2 mg/dL, the RALB (72 h, time 3 day) was 4.1 g/dL and the TBIL (72 h, time 3 day) was 0.3 mg/dL. It also gave a TC (72 h, time 3 day) of 73.2 mg/dL, a TG (72 h, time 3 day) of 52.8 mg/dL and a TP (72 h, time 3 day) of 5.7 g/dL. For the same compound, the gamma-GTP (72 h, time 3 day) was 1 IU/L, the TERMINAL_BW ([…], time 7 day) was 254.9 g and the TERMINAL_BW ([…], time 14 day) was 307.7 g. For the same compound, the TERMINAL_BW ([…], time 28 day) was 357.4 g, the APTT ([…], time 7 day) was 18.9 s and the Bas ([…], time 7 day) was 0%. For the same compound, the Eos ([…], time 7 day) was 1.5%, the Fbg ([…], time 7 day) was 238.5 mg/dL and the Hb ([…], time 7 day) was 14.4 g/dL. It also gave a Ht ([…], time 7 day) of 42.8%, a Lym ([…], time 7 day) of 75.5% and an MCH ([…], time 7 day) of 21.6 pg. For the same compound, the MCHC ([…], time 7 day) was 33.6%, the MCV ([…], time 7 day) was 64.1 fL and the Mono ([…], time 7 day) was 7%. It also gave a Neu ([…], time 7 day) of 16.2%, a PT ([…], time 7 day) of 12.2 s and a Plat ([…], time 7 day) of 113.7 x10_4/uL. It also gave an RBC ([…], time 7 day) of 668.5 x10_4/ul, a Ret ([…], time 7 day) of 5.2% and a WBC ([…], time 7 day) of 92.8 x10_2/uL. The APTT ([…], time 14 day) was 18.5 s, the Bas ([…], time 14 day) was 0% and the Eos ([…], time 14 day) was 1%. It also gave a Fbg ([…], time 14 day) of 224.4 mg/dL, a Hb ([…], time 14 day) of 14.3 g/dL and a Ht ([…], time 14 day) of 42.7%. For the same compound, the Lym ([…], time 14 day) was 73.6%, the MCH ([…], time 14 day) was 20.6 pg and the MCHC ([…], time 14 day) was 33.4%. It also gave an MCV ([…], time 14 day) of 61.6 fL, a Mono ([…], time 14 day) of 6.2% and a Neu ([…], time 14 day) of 19.8%. It also gave a PT ([…], time 14 day) of 12.5 s, a Plat ([…], time 14 day) of 99.2 x10_4/uL and an RBC ([…], time 14 day) of 694 x10_4/ul. The Ret ([…], time 14 day) was 4.5%, the WBC ([…], time 14 day) was 138 x10_2/uL and the APTT ([…], time 28 day) was 17.9 s. For the same compound, the Bas ([…], time 28 day) was 0%, the Eos ([…], time 28 day) was 1.5% and the Fbg ([…], time 28 day) was 204 mg/dL. For the same compound, the Hb ([…], time 28 day) was 15 g/dL, the Ht ([…], time 28 day) was 44.7% and the Lym ([…], time 28 day) was 79.2%. The MCH ([…], time 28 day) was 19.1 pg, the MCHC ([…], time 28 day) was 33.5% and the MCV ([…], time 28 day) was 57.1 fL. The Mono ([…], time 28 day) was 5.8%, the Neu ([…], time 28 day) was 14.2% and the PT ([…], time 28 day) was 12.5 s. It also gave a Plat ([…], time 28 day) of 99.8 x10_4/uL, an RBC ([…], time 28 day) of 783.2 x10_4/ul and a Ret ([…], time 28 day) of 2.7%. It also gave a WBC ([…], time 28 day) of 130.6 x10_2/uL, a KIDNEY_L ([…], time 7 day) of 1.1 g and a KIDNEY_R ([…], time 7 day) of 1.1 g. It also gave a KIDNEY_TOTAL ([…], time 7 day) of 2.1 g, a KIDNEY_L ([…], time 14 day) of 1.2 g and a KIDNEY_R ([…], time 14 day) of 1.3 g. The KIDNEY_TOTAL ([…], time 14 day) was 2.5 g, the KIDNEY_L ([…], time 28 day) was 1.3 g and the KIDNEY_R ([…], time 28 day) was 1.4 g. The KIDNEY_TOTAL ([…], time 28 day) was 2.8 g, the LIVER ([…], time 7 day) was 18.9 g and the LIVER ([…], time 14 day) was 22.3 g. The LIVER ([…], time 28 day) was 22.9 g, the A/G ([…], time 7 day) was 2.6 and the ALP ([…], time 7 day) was 853.5 IU/L. It also gave an ALT ([…], time 7 day) of 34.2 IU/L, an AST ([…], time 7 day) of 61.2 IU/L and a BUN ([…], time 7 day) of 22 mg/dL. It also gave a CRE ([…], time 7 day) of 0.6 mg/dL, a Ca ([…], time 7 day) of 10.5 mg/dL and a Cl ([…], time 7 day) of 106.8 meq/L. The DBIL ([…], time 7 day) was 0.0225 mg/dL, the GLC ([…], time 7 day) was 190 mg/dL and the IP ([…], time 7 day) was 8.1 mg/dL. It also gave a K ([…], time 7 day) of 4.5 meq/L, an LDH ([…], time 7 day) of 201.5 IU/L and a Na ([…], time 7 day) of 140.7 meq/L. It also gave a PL ([…], time 7 day) of 157.5 mg/dL, an RALB ([…], time 7 day) of 4.7 g/dL and a TBIL ([…], time 7 day) of 0.2 mg/dL. The TC ([…], time 7 day) was 100.8 mg/dL, the TG ([…], time 7 day) was 35.8 mg/dL and the TP ([…], time 7 day) was 6.5 g/dL. It also gave a gamma-GTP ([…], time 7 day) of 1 IU/L, an A/G ([…], time 14 day) of 2.3 and an ALP ([…], time 14 day) of 1092 IU/L. For the same compound, the ALT ([…], time 14 day) was 36.2 IU/L, the AST ([…], time 14 day) was 63.6 IU/L and the BUN ([…], time 14 day) was 21 mg/dL. It also gave a CRE ([…], time 14 day) of 0.6 mg/dL, a Ca ([…], time 14 day) of 10.4 mg/dL and a Cl ([…], time 14 day) of 107.4 meq/L. The DBIL ([…], time 14 day) was 0.022 mg/dL, the GLC ([…], time 14 day) was 186 mg/dL and the IP ([…], time 14 day) was 7.4 mg/dL. For the same compound, the K ([…], time 14 day) was 4.3 meq/L, the LDH ([…], time 14 day) was 163.8 IU/L and the Na ([…], time 14 day) was 141.7 meq/L. It also gave a PL ([…], time 14 day) of 144.2 mg/dL, an RALB ([…], time 14 day) of 4.4 g/dL and a TBIL ([…], time 14 day) of 0.3 mg/dL. For the same compound, the TC ([…], time 14 day) was 87.4 mg/dL, the TG ([…], time 14 day) was 36.6 mg/dL and the TP ([…], time 14 day) was 6.3 g/dL. It also gave a gamma-GTP ([…], time 14 day) of 1 IU/L, an A/G ([…], time 28 day) of 2.2 and an ALP ([…], time 28 day) of 795 IU/L. It also gave an ALT ([…], time 28 day) of 42.5 IU/L, an AST ([…], time 28 day) of 64.5 IU/L and a BUN ([…], time 28 day) of 21 mg/dL. The CRE ([…], time 28 day) was 0.5 mg/dL, the Ca ([…], time 28 day) was 9.6 mg/dL and the Cl ([…], time 28 day) was 108.2 meq/L. For the same compound, the DBIL ([…], time 28 day) was 0.02 mg/dL, the GLC ([…], time 28 day) was 178.2 mg/dL and the IP ([…], time 28 day) was 7 mg/dL. The K ([…], time 28 day) was 4 meq/L, the LDH ([…], time 28 day) was 108.2 IU/L and the Na ([…], time 28 day) was 141.9 meq/L. For the same compound, the PL ([…], time 28 day) was 120 mg/dL, the RALB ([…], time 28 day) was 4 g/dL and the TBIL ([…], time 28 day) was 0.3 mg/dL. For the same compound, the TC ([…], time 28 day) was 69.5 mg/dL, the TG ([…], time 28 day) was 34.5 mg/dL and the TP ([…], time 28 day) was 5.9 g/dL. For the same compound, the gamma-GTP ([…], time 28 day) was 1.2 IU/L.
